The source of these data is patent publication US6242494A, “Substituted β-amino acid inhibitors of methionine aminopeptidase-2” (Abbott Laboratories, priority 1999, dated 2001).

Structures can show the parent of a compound that is named as a salt. Where two headings read alike, the source gives them in different places.

In one test the test system is angiogenesis. To be noted: cited from earlier work; for inhibition of angiogenesis: result in words.
In test [1] the test system is type 2 methionine aminopeptidase, MetAP2. As to conditions: result in words; cited from earlier work.
A further test relates to endothelial cell cycle. To be noted: late G1 phase; result in words; cited from earlier work.
The next test has as its system MetAP2. As to conditions: result in words; cited from earlier work.
For test [2], the target named is T1, methionine aminopeptidase-2 (MetAP2) (Homo sapiens, UniProt P50579).
T1 construct: made in house; host or cells: insect cells, baculovirus system (secreted, purified from culture supernatant)
T1 sequence (P50579 whole entry): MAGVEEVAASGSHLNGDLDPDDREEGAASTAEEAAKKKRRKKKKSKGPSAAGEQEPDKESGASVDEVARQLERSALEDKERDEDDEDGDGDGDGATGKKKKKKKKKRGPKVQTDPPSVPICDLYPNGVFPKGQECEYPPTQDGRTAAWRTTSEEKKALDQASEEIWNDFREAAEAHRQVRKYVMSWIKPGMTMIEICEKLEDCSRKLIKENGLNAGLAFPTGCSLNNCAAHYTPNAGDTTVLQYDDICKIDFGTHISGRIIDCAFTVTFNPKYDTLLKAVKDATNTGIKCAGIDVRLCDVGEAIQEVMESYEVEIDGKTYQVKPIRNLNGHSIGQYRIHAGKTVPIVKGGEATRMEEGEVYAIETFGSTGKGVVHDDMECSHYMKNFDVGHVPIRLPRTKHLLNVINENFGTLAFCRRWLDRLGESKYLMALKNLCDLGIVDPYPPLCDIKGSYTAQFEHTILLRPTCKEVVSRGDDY
The test can be described thus: Inhibition of MetAP2 enzyme activity (96-well, Met-Ala-Ser substrate, L-amino acid oxidase/peroxidase/ortho-dianisidine, 450 nm). The test is classed as biochemical. To be noted: pH 7.4, Met-Ala-Ser substrate, 20 minutes.

Where [3] appears, read: IC50, recombinant MetAP2 4 μg/mL.

In the case of `CO[C@@H]1[C@H](OC(=O)NC(=O)CCl)CC[C@]2(CO2)[C@H]1[C@@]1(C)O[C@@H]1CC=C(C)C` [TNP-470, O-(chloroacetylcarbamoyl)fumagillol], in the test on angiogenesis (more potent than fumagillin), the “potency as angiogenesis inhibitor relative to natural precursor fumagillin” value is on record as 50 fold. For the same compound, the inhibition of angiogenesis result in the test with angiogenesis is “potent inhibitors of angiogenesis”. Besides, the “binding to MetAP2” value in test [1] is given as “bind to a common bifunctional protein, type 2 methionine aminopeptidase, MetAP2”. In the test with endothelial cell cycle, the “inhibition of neovascularization by arresting the endothelial cell cycle” value is listed as “effective in inhibiting neovacularization by arresting the endothelial cell cycle in the late G1 phase”. The “mode of MetAP2 inhibition” value with MetAP2 is recorded as “irreversible inhibitors”.

Regarding `CO[C@@H]1[C@H](OC(=O)/C=C/C=C/C=C/C=C/C(=O)O)CC[C@]2(CO2)[C@H]1[C@@]1(C)O[C@@H]1CC=C(C)C` [fumagillin], the inhibition of angiogenesis result with angiogenesis is given as “potent inhibitors of angiogenesis”. In the test on endothelial cell cycle, the “inhibition of neovascularization by arresting the endothelial cell cycle” value is on record as “effective in inhibiting neovacularization by arresting the endothelial cell cycle in the late G1 phase”. In addition, the “mode of MetAP2 inhibition” value in the test with MetAP2 is given as “irreversible inhibitors”. The IC50 is the concentration that gives 50% inhibition. Consider `CCSC(C)[C@H](NC(=O)OC(C)(C)C)C(O)C(=O)NC(=O)CCCc1ccccc1` (mixture of isomers) [Example 37, (2RS,3R)-N-((phenylbutyryl)-3-tert-butoxycarbonylamino-2-hydroxy-4-ethylthio)pentanamide], for which the IC50 in test [2] (recombinant MetAP2 4 μg/mL, read-out: IC50) came to 16 µM. Turning to `COc1cccc(CNC(=O)C(O)[C@H](N)CC2CCCCC2)c1` (mixture of isomers) [Example 189, (2RS,3R)-3-amino-4-cyclohexyl-2-hydroxy-N-(3-methoxybenzyl)butanamide hydrochloride], the concentration for half-maximal inhibition (IC50) in test [2] (setting [3]) stood at 1.5 µM.

Take `COc1ccc(CCNC(=O)C(O)[C@H](N)CC2CCCCC2)cc1` (mixture of isomers) [Example 195, (2RS,3R)-3-amino-4-cyclohexyl-2-hydroxy-N-(4-methoxyphenethyl)butanamide hydrochloride]: the IC50 in test [2] (setting [3]) came out at 1.3 µM.

Consider `COc1ccc(OC)c(NC(=O)C(O)[C@H](N)CC2CCCCC2)c1` (mixture of isomers) [Example 177, (2RS,3R)-3-amino-4cyclohexyl-N-(2,5-dimethoxyphenyl)-2-hydroxybutanamide hydrochloride], for which, in test [2] (setting [3]), the IC50 is 2 µM. `CC(C)CCCC(C)NC(=O)C(O)[C@H](N)CC1CCCCC1` (stereo partly drawn) [Example 211, (2RS,3R)-3-amino-4-cyclohexyl-N-(1.5-dimethylhexyl)-2-hydroxybutanamide Hydrochloride]: in test [2] (setting [3]), the IC50 was determined as 2.4 µM. Still for that read-out and setting: the result for `N[C@H](CC1CCCCC1)C(O)C(=O)NCCc1ccc(Cl)cc1` (mixture of isomers) [Example 198, (2RS,3R)-3-amino-N-(4-chlorophenethyl)-4-cyclohexyl-2-hydroxybutanamide hydrochloride] reads 0.84 µM. The same measure, in the same setting: the result for `CCOC(=O)[C@H](CO)NC(=O)C(O)[C@H](N)CCSCC` (stereo partly drawn) [Example 36, (2RS,3R)-N-((1-(2-hydroxy)-1-ethoxycarboxyethyl) 3-amino-2-hydroxy-4-ethylthio)pentanamide hydrochloride] reads 0.14 µM.
